Assay results: ChEMBL document CHEMBL5537158, “Polymyxins with Potent Antibacterial Activity against Colistin-Resistant Pathogens: Fine-Tuning Hydrophobicity with Unnatural Amino Acids” (J Med Chem, 2024)
Positions of bridges follow the written chain, without caps; N, C: chain ends. Non-standard residues stand in square brackets, D forms with d. Residues, ends and D or L forms follow the SMILES beside them. *: point of attachment. Phe(3,4,5-F3) = N[C@@H](Cc1cc(F)c(F)c(F)c1)C(=O)O; dPhe(4-CF3) = N[C@H](Cc1ccc(C(F)(F)F)cc1)C(=O)O; dPhe(F5) = N[C@H](Cc1c(F)c(F)c(F)c(F)c1F)C(=O)O; Phe(4-Br) = N[C@@H](Cc1ccc(Br)cc1)C(=O)O; Phe(4-Cl) = N[C@@H](Cc1ccc(Cl)cc1)C(=O)O; Phe(3-F) = N[C@@H](Cc1cccc(F)c1)C(=O)O; Phe(4-F) = N[C@@H](Cc1ccc(F)cc1)C(=O)O; dPhe(3-F) = N[C@H](Cc1cccc(F)c1)C(=O)O; d(hhPhe) = N[C@H](CCCc1ccccc1)C(=O)O; Gly(octyl) = CCCCCCCC[C@H](N)C(=O)O; d(hPhe) = N[C@H](CCc1ccccc1)C(=O)O; d(hLeu) = CC(C)CC[C@@H](N)C(=O)O; hPhe = N[C@@H](CCc1ccccc1)C(=O)O; Octanoyl = CCCCCCCC(=O)*; Dab = NCC[C@H](N)C(=O)O

Assay: Hemolytic activity in human RBC at 400 ug/ml after 1 hr
Assay type: toxicity, cell-based, Erythrocyte
Details: red blood cells (erythrocytes), at 400 µg/mL, read-out: Activity

SMILES	hemolysis at 1 h, 400 ug/ml [%]
CC(=O)N[C@H](Cc1ccccc1F)C(=O)N[C@@H](CCN)C(=O)N[C@H](C(=O)N[C@@H](CCN)C(=O)N[C@H]1CCNC(=O)[C@H]([C@@H](C)O)NC(=O)[C@H](CCN)NC(=O)[C@H](CCN)NC(=O)[C@H](CC(C)C)NC(=O)[C@@H](Cc2ccccc2)NC(=O)[C@@H](CCN)NC1=O)[C@H](C)O	< 10
CCCCCCCC(=O)N[C@@H](CCN)C(=O)N[C@H](C(=O)N[C@@H](CCN)C(=O)N[C@H]1CCNC(=O)[C@H]([C@@H](C)O)NC(=O)[C@H](CCN)NC(=O)[C@H](CCN)NC(=O)[C@H](CCc2ccccc2)NC(=O)[C@@H](CC(C)C)NC(=O)[C@H](CCN)NC1=O)[C@@H](C)O (Octanoyl-[Dab]T[Dab][Dab][Dab][dL][hPhe][Dab][Dab]T; lactam 4-C)	< 10
CCCCCCCC(=O)N[C@@H](CCN)C(=O)N[C@H](C(=O)N[C@@H](CCN)C(=O)N[C@H]1CCNC(=O)[C@H]([C@@H](C)O)NC(=O)[C@H](CCN)NC(=O)[C@H](CCN)NC(=O)[C@H](Cc2ccccc2)NC(=O)[C@@H](CCc2ccccc2)NC(=O)[C@H](CCN)NC1=O)[C@@H](C)O (Octanoyl-[Dab]T[Dab][Dab][Dab][d(hPhe)]F[Dab][Dab]T; lactam 4-C)	< 10
CCCCCCCC(=O)N[C@@H](CCN)C(=O)N[C@H](C(=O)N[C@@H](CCN)C(=O)N[C@H]1CCNC(=O)[C@H]([C@@H](C)O)NC(=O)[C@H](CCN)NC(=O)[C@H](CCN)NC(=O)[C@H](Cc2ccc(Br)cc2)NC(=O)[C@@H](CC(C)C)NC(=O)[C@H](CCN)NC1=O)[C@@H](C)O (Octanoyl-[Dab]T[Dab][Dab][Dab][dL][Phe(4-Br)][Dab][Dab]T; lactam 4-C)	< 10
CCCCCCCC(=O)N[C@@H](CCN)C(=O)N[C@H](C(=O)N[C@@H](CCN)C(=O)N[C@H]1CCNC(=O)[C@H]([C@@H](C)O)NC(=O)[C@H](CCN)NC(=O)[C@H](CCN)NC(=O)[C@H](CC(C)C)NC(=O)[C@@H](Cc2ccc(Br)cc2)NC(=O)[C@H](CCN)NC1=O)[C@@H](C)O	< 10
CCCCCCCC(=O)N[C@@H](CCN)C(=O)N[C@H](C(=O)N[C@@H](CCN)C(=O)N[C@H]1CCNC(=O)[C@H]([C@@H](C)O)NC(=O)[C@H](CCN)NC(=O)[C@H](CCN)NC(=O)[C@H](Cc2cccc(F)c2)NC(=O)[C@@H](CC(C)C)NC(=O)[C@H](CCN)NC1=O)[C@@H](C)O (Octanoyl-[Dab]T[Dab][Dab][Dab][dL][Phe(3-F)][Dab][Dab]T; lactam 4-C)	< 10
CCCCCCCC(=O)N[C@@H](CCN)C(=O)N[C@H](C(=O)N[C@@H](CCN)C(=O)N[C@H]1CCNC(=O)[C@H]([C@@H](C)O)NC(=O)[C@H](CCN)NC(=O)[C@H](CCN)NC(=O)[C@H](Cc2cc(F)c(F)c(F)c2)NC(=O)[C@@H](CC(C)C)NC(=O)[C@H](CCN)NC1=O)[C@@H](C)O (Octanoyl-[Dab]T[Dab][Dab][Dab][dL][Phe(3,4,5-F3)][Dab][Dab]T; lactam 4-C)	< 10
CCCCCCCC(=O)N[C@@H](CCN)C(=O)N[C@H](C(=O)N[C@@H](CCN)C(=O)N[C@H]1CCNC(=O)[C@H]([C@@H](C)O)NC(=O)[C@H](CCN)NC(=O)[C@H](CCN)NC(=O)[C@H](Cc2ccc(F)cc2)NC(=O)[C@@H](CC(C)C)NC(=O)[C@H](CCN)NC1=O)[C@@H](C)O (Octanoyl-[Dab]T[Dab][Dab][Dab][dL][Phe(4-F)][Dab][Dab]T; lactam 4-C)	< 10
CCCCCCCC(=O)N[C@@H](CCN)C(=O)N[C@H](C(=O)N[C@@H](CCN)C(=O)N[C@H]1CCNC(=O)[C@H]([C@@H](C)O)NC(=O)[C@H](CCN)NC(=O)[C@H](CCN)NC(=O)[C@H](Cc2ccccc2)NC(=O)[C@@H](CCC(C)C)NC(=O)[C@H](CCN)NC1=O)[C@@H](C)O (Octanoyl-[Dab]T[Dab][Dab][Dab][d(hLeu)]F[Dab][Dab]T; lactam 4-C)	< 10
CCCCCCCC(=O)N[C@@H](CCN)C(=O)N[C@H](C(=O)N[C@@H](CCN)C(=O)N[C@H]1CCNC(=O)[C@H]([C@@H](C)O)NC(=O)[C@H](CCN)NC(=O)[C@H](CCN)NC(=O)[C@H](Cc2ccccc2)NC(=O)[C@@H](CCCc2ccccc2)NC(=O)[C@H](CCN)NC1=O)[C@@H](C)O (Octanoyl-[Dab]T[Dab][Dab][Dab][d(hhPhe)]F[Dab][Dab]T; lactam 4-C)	< 10
CCCCCCCC(=O)N[C@@H](CCN)C(=O)N[C@H](C(=O)N[C@@H](CCN)C(=O)N[C@H]1CCNC(=O)[C@H]([C@@H](C)O)NC(=O)[C@H](CCN)NC(=O)[C@H](CCN)NC(=O)[C@H](CC(C)C)NC(=O)[C@@H](Cc2cccc(F)c2)NC(=O)[C@H](CCN)NC1=O)[C@@H](C)O (Octanoyl-[Dab]T[Dab][Dab][Dab][dPhe(3-F)]L[Dab][Dab]T; lactam 4-C)	< 10
CCCCCCCC(=O)N[C@@H](CCN)C(=O)N[C@H](C(=O)N[C@@H](CCN)C(=O)N[C@H]1CCNC(=O)[C@H]([C@@H](C)O)NC(=O)[C@H](CCN)NC(=O)[C@H](CCN)NC(=O)[C@H](CC(C)C)NC(=O)[C@@H](CCCc2ccccc2)NC(=O)[C@H](CCN)NC1=O)[C@@H](C)O (Octanoyl-[Dab]T[Dab][Dab][Dab][d(hhPhe)]L[Dab][Dab]T; lactam 4-C)	< 10
CCCCCCCC[C@@H]1NC(=O)[C@@H](Cc2ccccc2)NC(=O)[C@H](CCN)NC(=O)[C@@H](NC(=O)[C@H](CCN)NC(=O)[C@@H](NC(=O)[C@H](CCN)NC(=O)CCCCCCC)[C@@H](C)O)CCNC(=O)[C@H]([C@@H](C)O)NC(=O)[C@H](CCN)NC(=O)[C@H](CCN)NC1=O (Octanoyl-[Dab]T[Dab][Dab][Dab][dF][Gly(octyl)][Dab][Dab]T; lactam 4-C)	< 10
CCCCCCCC(=O)N[C@@H](CCN)C(=O)N[C@H](C(=O)N[C@@H](CCN)C(=O)N[C@H]1CCNC(=O)[C@H]([C@@H](C)O)NC(=O)[C@H](CCN)NC(=O)[C@H](CCN)NC(=O)[C@H](CC(C)C)NC(=O)[C@@H](Cc2ccc(C(F)(F)F)cc2)NC(=O)[C@H](CCN)NC1=O)[C@@H](C)O (Octanoyl-[Dab]T[Dab][Dab][Dab][dPhe(4-CF3)]L[Dab][Dab]T; lactam 4-C)	< 10
CCCCCCCC(=O)N[C@@H](CCN)C(=O)N[C@H](C(=O)N[C@@H](CCN)C(=O)N[C@H]1CCNC(=O)[C@H]([C@@H](C)O)NC(=O)[C@H](CCN)NC(=O)[C@H](CCN)NC(=O)[C@H](CC(C)C)NC(=O)[C@@H](CCc2ccccc2)NC(=O)[C@H](CCN)NC1=O)[C@@H](C)O (Octanoyl-[Dab]T[Dab][Dab][Dab][d(hPhe)]L[Dab][Dab]T; lactam 4-C)	< 10
CCCCCCCC(=O)N[C@@H](CCN)C(=O)N[C@H](C(=O)N[C@@H](CCN)C(=O)N[C@H]1CCNC(=O)[C@H]([C@@H](C)O)NC(=O)[C@H](CCN)NC(=O)[C@H](CCN)NC(=O)[C@H](Cc2ccc(Cl)cc2)NC(=O)[C@@H](CC(C)C)NC(=O)[C@H](CCN)NC1=O)[C@@H](C)O (Octanoyl-[Dab]T[Dab][Dab][Dab][dL][Phe(4-Cl)][Dab][Dab]T; lactam 4-C)	< 10
CCCCCCCC(=O)N[C@@H](CCN)C(=O)N[C@H](C(=O)N[C@@H](CCN)C(=O)N[C@H]1CCNC(=O)[C@H]([C@@H](C)O)NC(=O)[C@H](CCN)NC(=O)[C@H](CCN)NC(=O)[C@H](CC(C)C)NC(=O)[C@@H](Cc2c(F)c(F)c(F)c(F)c2F)NC(=O)[C@H](CCN)NC1=O)[C@@H](C)O (Octanoyl-[Dab]T[Dab][Dab][Dab][dPhe(F5)]L[Dab][Dab]T; lactam 4-C)	< 10
